# Assay: solvent given as SMILES
compound,measurement,setting,value
C(=C\c1ccc(N(c2ccccc2)c2ccccc2)cc1)/c1ccccc1,fluorescence lifetime,in CC#N,1.37 ns
same,fluorescence lifetime,in CCCCCC,0.51 ns
O=S(=O)([O-])c1cc(S(=O)(=O)Cl)ccc1C1=c2cc3c4c(c2Oc2c1cc1c5c2CCCN5CCC1)CCC[N+]=4CCC3,fluorescence lifetime,in O,4.2 ns
CCCCCCCCN1C(=O)c2ccc3c4c(-c5ccc6c7ccccc7n(-c7ccccc7)c6c5)cc5c6c(cc(-c7ccc8c9ccccc9n(-c9ccccc9)c8c7)c(c7ccc(c2c37)C1=O)c64)C(=O)N(CCCCCCCC)C5=O,fluorescence lifetime,in ClC(Cl)Cl,13.2 ns
O=Cc1ccc2ccc3cccc4ccc1c2c34,fluorescence lifetime,in C1CCOC1,127 ns
same,fluorescence lifetime,in CC#N,8.76 ns
same,fluorescence lifetime,in CCCCCC,7.43 ns
same,fluorescence lifetime,in CCO,6.44 ns
same,fluorescence lifetime,in CN(C)C=O,64.8 ns
same,fluorescence lifetime,in CO,0.953 ns
same,fluorescence lifetime,in Cc1ccccc1,15.3 ns
same,fluorescence lifetime,in ClCCl,3.45 ns
O=C1c2ccc(N(c3ccc(-c4ccccc4)cc3)c3ccc(-c4ccccc4)cc3)cc2C(=O)c2ccc(N(c3ccc(-c4ccccc4)cc3)c3ccc(-c4ccccc4)cc3)cc21,fluorescence lifetime,in Cc1ccccc1,3.5 ns
same,fluorescence lifetime,in c1ccc2c(c1)c1ccccc1n2-c1ccc(-c2ccc(-n3c4ccccc4c4ccccc43)cc2)cc1,5.6 ns
C(=C\c1ccnc2ccccc12)/c1c2ccccc2cc2ccccc12,fluorescence lifetime,in CC1CCCCC1,2.6 ns
same,fluorescence lifetime,in CC#N,0.088 ns
COc1nc(Cl)nc(Nc2ccc3c4c(cccc24)C(=O)c2ccccc2-3)n1,fluorescence lifetime,in CC#N,8.4 ns
same,fluorescence lifetime,in CC(C)=O,7.7 ns
same,fluorescence lifetime,in CC(C)O,8 ns
same,fluorescence lifetime,in CCCCOCCCC,0.9 ns
same,fluorescence lifetime,in CCOC(C)=O,3.9 ns
same,fluorescence lifetime,in CCOCC,1.6 ns
same,fluorescence lifetime,in CO,7.7 ns
same,fluorescence lifetime,in Cc1ccccc1,2.8 ns
same,fluorescence lifetime,in Clc1ccccc1,5.4 ns
same,fluorescence lifetime,in N#Cc1ccccc1,7.8 ns
same,fluorescence lifetime,in O=C1CCCCC1,6.3 ns
CCN(CC)c1ccc2c(c1)oc(=O)c1c(C)nc3c(cnn3-c3ccccc3)c12,fluorescence lifetime,in ClCCl,2.72 ns
CCCCn1c(-c2ccc(-c3nnc(-c4ccccc4)o3)cc2)nc2c3ccccc3c3ccccc3c21,fluorescence lifetime,in ClCCl,1.84 ns
CCOC(=O)c1ccc2nc(/N=N/c3ccc(N(CC)CC)cc3)sc2c1,fluorescence lifetime,in CC#N,5.59 ns
same,fluorescence lifetime,in ClCCl,5.33 ns
C[n+]1ccc2c(ccc3c[n+](C)ccc32)c1,fluorescence lifetime,in CC#N,6.6 ns
Cc1ccccc1C1=C2C=c3c(oc4ccc(C(C)(C)C)cc34)=[N+]2[B-](F)(F)n2c1cc1c3cc(C(C)(C)C)ccc3oc12,fluorescence lifetime,in C1CCCCC1,4.11 ns
same,fluorescence lifetime,in CCOC(C)=O,4.28 ns
same,fluorescence lifetime,in CO,4.21 ns
COC(=O)/C(C#N)=c1\s/c(=c2/s/c(=C(/C#N)C(=O)OC)c3cc(-c4ccc(C(F)(F)F)cc4)sc23)c2sc(-c3ccc(C(F)(F)F)cc3)cc12,fluorescence lifetime,in Cc1ccccc1,2.32 ns
Cc1ccsc1-c1ccc(-c2ccc(-c3sccc3C)s2)s1,fluorescence lifetime,in CCC(C)C,0.43 ns
Nc1ccc(N2C(=O)c3ccc4c5ccc6c7c(ccc(c8ccc(c3c48)C2=O)c75)C(=O)N(c2ccc(O)cc2)C6=O)cc1,fluorescence lifetime,in CN(C)C=O,3.1 ns
COc1cc(C(=O)c2c(C)c3ccc4cccc5c6cccc7ccc2c(c76)c3c45)cc(OC)c1OC,fluorescence lifetime,in ClCCl,1.35 ns
C[n+]1ccc2c(ccc3c[n+](C)c4ccc5ccccc5c4c32)c1,fluorescence lifetime,in CC#N,10.2 ns
CCCCCCC(CCCCCC)N1C(=O)c2cccc3c(-c4ccc(C#N)cc4)ccc(c23)C1=O,fluorescence lifetime,in CCCCCC,1.02 ns
same,fluorescence lifetime,in CCCCCCCCCCCCCC,0.994 ns
same,fluorescence lifetime,in CCCCCCCCCCCO,2.12 ns
same,fluorescence lifetime,in CCCCO,2.21 ns
same,fluorescence lifetime,in CN(C)C=O,2.15 ns
same,fluorescence lifetime,in Cc1ccccc1,1.16 ns
same,fluorescence lifetime,in ClC(Cl)Cl,1.34 ns
CC(C)(C)c1cc(-n2c(-c3ccc(C(=C(c4ccccc4)c4ccccc4)c4ccccc4)cc3)cc3c2cc(-c2ccc(C(=C(c4ccccc4)c4ccccc4)c4ccccc4)cc2)n3-c2cc(C(C)(C)C)cc(C(C)(C)C)c2)cc(C(C)(C)C)c1,fluorescence lifetime,in ClCCl,0.063 ns
Cc1cc2c(ccc3c[n+](C)c(C)cc32)c[n+]1C,fluorescence lifetime,in CC#N,6.1 ns
COC(=O)c1cc(=O)n(Cc2ccccc2)c2cc(-c3ccc(OC)cc3)sc12,fluorescence lifetime,in ClCCl,2.06 ns
CCCCCCOc1cc(/C=C/c2cc(OCCCCCC)c(/C=C/c3cc(OCCCCCC)c(C=C4C(=O)c5ccccc5C4=O)cc3OCCCCCC)cc2OCCCCCC)c(OCCCCCC)cc1C=C1C(=O)c2ccccc2C1=O,fluorescence lifetime,in ClCCl,1.22 ns
c1cc2cc(c1)c1ccc3ccc4ccc(cc4c3c1)c1ccc3ccc4ccc(cc4c3c1)c1cccc2c1,fluorescence lifetime,in Cc1ccccc1,4.7 ns
CCN(CC)c1ccc2c(-c3ccccc3C(=O)O)c3c([o+]c2c1)/C(=C/c1nc(-c2ccccc2)n2ccccc12)CCC3,fluorescence lifetime,in ClCCl,2.97 ns
Cc1ccc(N(c2ccc(C)cc2)c2ccc(-c3ccc(C=C(C#N)C#N)cc3)cc2)cc1,fluorescence lifetime,in ClC(Cl)Cl,1.06 ns
COc1ccsc1-c1ccc(-c2ccc(-c3sccc3OC)s2)s1,fluorescence lifetime,in CCC(C)C,0.61 ns
O=c1c2cccc3cccc(c32)c2nc3ccccc3n12,fluorescence lifetime,in ClCCl,11.1 ns
CCn1c2ccccc2c2cc(C#Cc3cc(C#Cc4ccc5c(c4)c4ccccc4n5CC)nc(S(C)(=O)=O)n3)ccc21,fluorescence lifetime,in C1CCOC1,4.22 ns
